For 2 molecules, Activity results are on record in ChEMBL document CHEMBL1140418, “Synthesis of (2R,3S) 3-amino-4-mercapto-2-butanol, a threonine analogue for covalent inhibition of sortases” (Bioorg Med Chem Lett, 2005).

Assay [1] deals with T1, Sortase B (Staphylococcus aureus) (UniProt Q2FZE3).
T1 sequence (whole entry): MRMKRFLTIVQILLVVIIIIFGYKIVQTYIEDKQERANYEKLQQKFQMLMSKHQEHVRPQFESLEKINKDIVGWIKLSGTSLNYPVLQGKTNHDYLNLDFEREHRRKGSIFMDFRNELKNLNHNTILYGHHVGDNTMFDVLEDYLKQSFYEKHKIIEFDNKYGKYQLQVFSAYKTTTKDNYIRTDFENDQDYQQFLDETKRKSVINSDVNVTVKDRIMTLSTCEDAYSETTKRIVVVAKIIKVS
The assay can be described thus: Inhibitory activity against Sortase B.

Assay [2] has as its target T2, Sortase A (Staphylococcus aureus) (UniProt Q9S446).
T2 sequence (whole entry): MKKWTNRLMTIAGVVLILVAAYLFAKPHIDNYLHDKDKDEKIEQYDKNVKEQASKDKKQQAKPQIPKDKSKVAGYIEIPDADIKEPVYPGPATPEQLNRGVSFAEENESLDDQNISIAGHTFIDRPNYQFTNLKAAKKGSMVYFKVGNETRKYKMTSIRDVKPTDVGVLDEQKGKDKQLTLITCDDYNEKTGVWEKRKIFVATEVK
Put plainly: Inhibitory activity against Sortase A.

Activity calls are given as the source filed them. The rule behind the calls is not given here.

`C[C@@H](O)[C@@H](CS)NC(=O)[C@H](CCC(N)=O)NC(=O)[C@@H]1CCCN1C(=O)[C@H](CC(N)=O)NC(=O)OCc1ccccc1`: the outcome in assay [1] was Active.
Regarding `CC(C)C[C@H](NC(=O)OCc1ccccc1)C(=O)N1CCC[C@H]1C(=O)N[C@@H](C)C(=O)N[C@H](CS)[C@@H](C)O`, the result in assay [2] was Active.
